Literature values in US12274730B2, “Flavonoid compositions and methods of use” (Berkley, LLC, priority 2015, dated 2025).

Settings: general statement, no test described

O=c1c(O)c(-c2ccc(O)c(O)c2)oc2cc(O)cc(O)c12 [Quercetin, 2-(3,4-dihydroxyphenyl)-3,5,7-trihydroxy-4H-chromen-4-one]
Half-life: 3.5 to 11 h
